{
  "source": "patent US8987234B2",
  "about": "“Complex for treatment and/or prophylaxis of parasitic infections” (IPCA Laboratories Ltd., priority 2009, dated 2015)",
  "key": {"physchem": {"assay": "physchem", "type": "physicochemical"}, "[1]": {"settings": "tablet formulation, Malarone label; cited from earlier work"}, "[2]": {"assay": "Intrinsic dissolution/solubility under standard USP conditions (40% isopropyl alcohol with phosphate buffer pH 8.0)", "type": "physicochemical"}, "[3]": {"assay": "Comparative rat pharmacokinetic study, plasma analyzed by LC MS/MS", "type": "in vivo, albino Wistar rats", "protocol": "Comparative pharmacokinetic study of complex of example-I at two doses with physical mixtures of Atovaquone and Proguanil hydrochloride (Malarone) was carried for profiling of bioavailability of Atovaquone, Proguanil and Cycloguanil from all three samples. Four groups of 13-14 weeks old five albino Wistar rats were made through random selection. Group I served as a vehicle control and received only 0.5% sodium carboxymethyl cellulose, group II and group III received two different doses of complex of Example I, and group IV received a physical mixture of Atovaquone and Proguanil hydrochloride (Malarone). The dose volume used for this study was 10 ml/Kg of body weight. Orbital sinus was used as blood collection site and the blood was collected in EDTA coated microcentrifuge tubes at different time points between 0 min (pre dose) to 240 hrs. Plasma samples were analyzed by LC MS/MS. Comparative pharmacokinetic profiles of Atovaquone, Proguanil and Cycloguanil are as given below in table 3, 4, and 5 respectively: […]"}},
  "data": [
    {"compound": "O=C1C(O)=C([C@H]2CC[C@H](c3ccc(Cl)cc3)CC2)C(=O)c2ccccc21", "note": "[Atovaquone, trans-2-[4-(4-chlorophenyl)cyclohexyl]-3-hydroxy-1,4-naphthoquinone]", "values": [
      {"measurement": "pKa", "setting": "physchem", "value": 8.39},
      {"measurement": "absolute bioavailability of Atovaquone", "setting": "[1]", "value": 23, "unit": "%"}
    ]},
    {"compound": "CC(C)NC(=N)NC(=N)Nc1ccc(Cl)cc1.O=C1C(O)=C([C@H]2CC[C@H](c3ccc(Cl)cc3)CC2)C(=O)c2ccccc21", "note": "[Complex, trans-Atovaquone-Proguanil complex (1:1)]", "values": [
      {"measurement": "% Dissolution Atovaquone", "setting": "[2]; 1 Hrs.", "value": 2.64, "unit": "%"},
      {"measurement": "% Dissolution Proguanil", "setting": "[2]; 1 Hrs.", "value": 1.97, "unit": "%"},
      {"measurement": "% Dissolution Atovaquone", "setting": "[2]; 2 Hrs.", "value": 5.61, "unit": "%"},
      {"measurement": "% Dissolution Proguanil", "setting": "[2]; 2 Hrs.", "value": 3.64, "unit": "%"},
      {"measurement": "% Dissolution Atovaquone", "setting": "[2]; 3 Hrs.", "value": 7.72, "unit": "%"},
      {"measurement": "% Dissolution Proguanil", "setting": "[2]; 3 Hrs.", "value": 5.22, "unit": "%"},
      {"measurement": "% Dissolution Atovaquone", "setting": "[2]; 4 Hrs.", "value": 9.75, "unit": "%"},
      {"measurement": "% Dissolution Proguanil", "setting": "[2]; 4 Hrs.", "value": 6.38, "unit": "%"},
      {"measurement": "intrinsic solubility of Atovaquone compared with physical mixture of Atovaquone-Proguanil", "setting": "[2]; 40% isopropyl alcohol with phosphate buffer pH 8.0", "value": "almost doubled"},
      {"measurement": "Atovaquone bioavailability increase versus corresponding ratio of physical mixture", "setting": "[3]", "value": "increased by at least two times"},
      {"measurement": "AUC0-inf of Atovaquone", "setting": "[3]; Atovaquone dose 6.166 mg/kg", "value": 298501.894, "unit": "ng/hrxml"},
      {"measurement": "Cmax of Atovaquone", "setting": "[3]; Atovaquone dose 6.166 mg/kg", "value": 4925.009, "unit": "ng/mL"},
      {"measurement": "MRT of Atovaquone", "setting": "[3]; Atovaquone dose 6.166 mg/kg", "value": 39.240, "unit": "h"},
      {"measurement": "T1/2 of Atovaquone", "setting": "[3]; Atovaquone dose 6.166 mg/kg", "value": 26.833, "unit": "h"},
      {"measurement": "Tmax of Atovaquone", "setting": "[3]; Atovaquone dose 6.166 mg/kg", "value": 19.200, "unit": "h"},
      {"measurement": "Vd of Atovaquone", "setting": "[3]; Atovaquone dose 6.166 mg/kg", "value": 0.001, "unit": "L/kg"},
      {"measurement": "AUC0-inf of Atovaquone", "setting": "[3]; Atovaquone dose 6.166 mg/kg (Table 3)", "value": "298501.894 ± 117805.568", "unit": "ng/hr × mL"},
      {"measurement": "AUC0-inf of Atovaquone", "setting": "[3]; Atovaquone dose 13.005 mg/kg", "value": 472148.864, "unit": "ng/hrxml"},
      {"measurement": "Cmax of Atovaquone", "setting": "[3]; Atovaquone dose 13.005 mg/kg", "value": 6779.226, "unit": "ng/mL"},
      {"measurement": "MRT of Atovaquone", "setting": "[3]; Atovaquone dose 13.005 mg/kg", "value": 50.644, "unit": "h"},
      {"measurement": "T1/2 of Atovaquone", "setting": "[3]; Atovaquone dose 13.005 mg/kg", "value": 29.542, "unit": "h"},
      {"measurement": "Tmax of Atovaquone", "setting": "[3]; Atovaquone dose 13.005 mg/kg", "value": 12.8, "unit": "h"},
      {"measurement": "Vd of Atovaquone", "setting": "[3]; Atovaquone dose 13.005 mg/kg", "value": 0.001, "unit": "L/kg"},
      {"measurement": "AUC0-inf of Cycloguanil", "setting": "[3]; Proguanil dose 4.2642 mg/kg", "value": 38.910, "unit": "ng/hrxml"},
      {"measurement": "AUC0-inf of Proguanil", "setting": "[3]; Proguanil dose 4.2642 mg/kg", "value": 497.306, "unit": "ng/hrxml"},
      {"measurement": "Cl of Cycloguanil", "setting": "[3]; Proguanil dose 4.2642 mg/kg", "value": 0.118, "unit": "L/kg/hr"},
      {"measurement": "Cl of Proguanil", "setting": "[3]; Proguanil dose 4.2642 mg/kg", "value": 0.15, "unit": "mL/min/kg"},
      {"measurement": "Cmax of Cycloguanil", "setting": "[3]; Proguanil dose 4.2642 mg/kg", "value": 4.667, "unit": "ng/ml"},
      {"measurement": "Cmax of Proguanil", "setting": "[3]; Proguanil dose 4.2642 mg/kg", "value": 87.400, "unit": "ng/mL"},
      {"measurement": "MRT of Cycloguanil", "setting": "[3]; Proguanil dose 4.2642 mg/kg", "value": 5.753, "unit": "hr"},
      {"measurement": "MRT of Proguanil", "setting": "[3]; Proguanil dose 4.2642 mg/kg", "value": 5.581, "unit": "h"},
      {"measurement": "T1/2 of Cycloguanil", "setting": "[3]; Proguanil dose 4.2642 mg/kg", "value": 5.620, "unit": "hr"},
      {"measurement": "T1/2 of Proguanil", "setting": "[3]; Proguanil dose 4.2642 mg/kg", "value": 4.779, "unit": "h"},
      {"measurement": "Tmax of Cycloguanil", "setting": "[3]; Proguanil dose 4.2642 mg/kg", "value": 3.200, "unit": "hr"},
      {"measurement": "Tmax of Proguanil", "setting": "[3]; Proguanil dose 4.2642 mg/kg", "value": 2.800, "unit": "h"},
      {"measurement": "Vd of Cycloguanil", "setting": "[3]; Proguanil dose 4.2642 mg/kg", "value": 0.873, "unit": "L/Kg"},
      {"measurement": "Vd of Proguanil", "setting": "[3]; Proguanil dose 4.2642 mg/kg", "value": 0.061, "unit": "L/kg"},
      {"measurement": "AUC0-inf of Cycloguanil", "setting": "[3]; Proguanil dose 8.995 mg/kg", "value": 34.797, "unit": "ng/hrxml"},
      {"measurement": "AUC0-inf of Proguanil", "setting": "[3]; Proguanil dose 8.995 mg/kg", "value": 485.239, "unit": "ng/hrxml"},
      {"measurement": "Cl of Cycloguanil", "setting": "[3]; Proguanil dose 8.995 mg/kg", "value": 0.261, "unit": "L/kg/hr"},
      {"measurement": "Cl of Proguanil", "setting": "[3]; Proguanil dose 8.995 mg/kg", "value": 0.317, "unit": "mL/min/kg"},
      {"measurement": "Cmax of Cycloguanil", "setting": "[3]; Proguanil dose 8.995 mg/kg", "value": 6.954, "unit": "ng/ml"},
      {"measurement": "Cmax of Proguanil", "setting": "[3]; Proguanil dose 8.995 mg/kg", "value": 94.515, "unit": "ng/mL"},
      {"measurement": "MRT of Cycloguanil", "setting": "[3]; Proguanil dose 8.995 mg/kg", "value": 5.106, "unit": "hr"},
      {"measurement": "MRT of Proguanil", "setting": "[3]; Proguanil dose 8.995 mg/kg", "value": 4.933, "unit": "h"},
      {"measurement": "T1/2 of Cycloguanil", "setting": "[3]; Proguanil dose 8.995 mg/kg", "value": 4.406, "unit": "hr"},
      {"measurement": "T1/2 of Proguanil", "setting": "[3]; Proguanil dose 8.995 mg/kg", "value": 13.149, "unit": "h"},
      {"measurement": "Tmax of Cycloguanil", "setting": "[3]; Proguanil dose 8.995 mg/kg", "value": 2.00, "unit": "hr"},
      {"measurement": "Tmax of Proguanil", "setting": "[3]; Proguanil dose 8.995 mg/kg", "value": 1.15, "unit": "h"},
      {"measurement": "Vd of Cycloguanil", "setting": "[3]; Proguanil dose 8.995 mg/kg", "value": 1.618, "unit": "L/Kg"},
      {"measurement": "Vd of Proguanil", "setting": "[3]; Proguanil dose 8.995 mg/kg", "value": 0.349, "unit": "L/kg"}
    ]}
  ]
}
